Experimental data from paper PMC8929364, “Metopimazine is primarily metabolized by a liver amidase in humans” (Pharmacology Research & Perspectives, 2021).

Experiments:
[1] = Incubation of MPZ in human liver S9; type: in vitro ADME; conditions: 2.5 µM MPZ, human liver S9 1 mg/ml, NADPH, 60 min
Method: (§1) An initial experiment was conducted with S9 fractions from liver and intestine to assess the role of liver and intestinal enzymes in the metabolism of MPZ. The reaction mixture contained 2.5 µM MPZ, pooled human liver or intestine S9 fraction (1 mg/ml S9 protein), 100 mM KPi buffer (pH 7.4). The reaction mixture was pre‐incubated for 3–5 min at 37°C in a humidified incubator filled with 5% CO2 followed by the addition of NADPH (1 mM) to initiate the reaction. The reaction was incubated for 0 and 60 min. The total percentage of organic solvent in the incubation mixture was ≤0.1%. The reactions were terminated by the addition of sample mixture of acetonitrile and ethanol (90:10, v/v). The positive control substrate, 7‐EC, was incubated in triplicate in an identical manner as MPZ for S9 fractions.
(§2) The degree of disappearance of each analyte was evaluated by comparing the PAR of analyte to IS or concentration in different sampling time points to the PAR of time zero, (t = 0, 100%). The percent of parent remaining values were calculated according to the following equation: %parentremaining=(meanconcentrationorPARateachsamplingtimepoint/meanconcentrationorPARoftimezero)×100

rhFMO5 = target: T1, rhFMO5 (Homo sapiens, UniProt P49326); experiment: Incubation of MPZ with recombinant FMO: FMO5; type: in vitro ADME; conditions: 1 µM MPZ, pH 8.4
T1 construct: purchased Corning Inc
T1 sequence (P49326 1-533): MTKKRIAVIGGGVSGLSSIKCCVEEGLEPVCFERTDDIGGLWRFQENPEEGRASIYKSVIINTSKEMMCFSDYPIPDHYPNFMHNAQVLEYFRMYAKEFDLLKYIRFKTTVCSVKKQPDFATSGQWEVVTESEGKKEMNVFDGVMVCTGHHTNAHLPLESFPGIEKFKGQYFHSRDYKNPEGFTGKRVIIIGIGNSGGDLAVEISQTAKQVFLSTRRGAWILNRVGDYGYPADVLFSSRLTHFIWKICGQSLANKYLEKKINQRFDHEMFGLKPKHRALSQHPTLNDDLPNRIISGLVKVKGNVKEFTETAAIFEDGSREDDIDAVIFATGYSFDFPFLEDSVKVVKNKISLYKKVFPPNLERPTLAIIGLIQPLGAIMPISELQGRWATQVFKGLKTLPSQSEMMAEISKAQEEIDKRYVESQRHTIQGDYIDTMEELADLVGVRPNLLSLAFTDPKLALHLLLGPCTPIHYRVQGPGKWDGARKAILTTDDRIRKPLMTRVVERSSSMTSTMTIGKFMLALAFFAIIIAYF
Method: (§3) MPZ at 1.0 µM was incubated in triplicate with individual recombinant FMO (Supersomes™ for FMO 1, FMO3, and FMO5). Protein concentrations for all rFMO isoforms were 0.05 mg/ml. A positive control (benzydamine, 100 µM) was incubated for 20 min. The reaction mixture containing MPZ or FMO substrate, KPi buffer (pH 8.4), and FMO Supersomes™ was pre‐incubated at 37°C for 3–5 min. All other procedures were the same as described previously. The negative control reactions were incubated absence of NADPH.

rhFMO3 = target: T2, rhFMO3 (Homo sapiens, UniProt P31513); experiment: Incubation of MPZ with recombinant FMO: FMO3; type: in vitro ADME; conditions: 1 µM MPZ, pH 8.4
T2 construct: purchased Corning Inc
T2 sequence (P31513 1-532): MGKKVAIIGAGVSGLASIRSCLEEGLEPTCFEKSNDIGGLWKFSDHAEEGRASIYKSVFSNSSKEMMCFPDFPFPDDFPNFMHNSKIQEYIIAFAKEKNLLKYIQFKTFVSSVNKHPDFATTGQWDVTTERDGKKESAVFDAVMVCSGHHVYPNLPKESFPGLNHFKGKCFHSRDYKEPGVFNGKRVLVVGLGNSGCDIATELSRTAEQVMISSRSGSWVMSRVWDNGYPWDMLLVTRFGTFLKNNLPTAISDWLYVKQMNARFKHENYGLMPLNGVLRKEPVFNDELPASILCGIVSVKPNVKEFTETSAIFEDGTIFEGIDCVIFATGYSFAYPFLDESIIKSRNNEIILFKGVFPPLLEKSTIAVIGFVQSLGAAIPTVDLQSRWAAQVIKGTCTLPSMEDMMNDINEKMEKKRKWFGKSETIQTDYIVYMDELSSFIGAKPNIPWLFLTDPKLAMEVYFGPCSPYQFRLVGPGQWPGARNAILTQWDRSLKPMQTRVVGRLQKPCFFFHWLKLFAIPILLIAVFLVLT
Method: as §3

[2] = Incubation of MPZ with human kidney microsomes (HKM); type: in vitro ADME; conditions: pH 8.4, NADPH, HKM 0.5 mg/ml, 60 min
Method: MPZ, at 1.0 and 10.0 µM, was incubated with HLM or HKM to determine the contribution of microsomal FMOs on the metabolism of MPZ.
A reaction mixture containing KPi buffer (pH 8.4), HLM or HKM (0.5 mg/ml protein) and MPZ (1.0 and 10.0 µM) was pre‐incubated for 3–5 min at 37°C. The reaction was initiated by the addition of NADPH into the reaction mixture. The reaction was conducted for 0 and 60 min. A positive control (benzydamine, 100 µM) was incubated in duplicate for 0 and 20 min. Parallel incubation was conducted by adding 1 mM methimazole, a non‐specific FMO inhibitor, under identical conditions. Heat‐inactivated microsomes (50°C for at least 5 min) was incubated under identical conditions negative control. All other procedures were the same as described previously.

[3] = Incubation of MPZ in human intestine S9; type: in vitro ADME; conditions: 2.5 µM MPZ, human intestine S9 1 mg/ml, NADPH, 60 min
Method: as §1, §2

human D2 receptor = system: human D2 receptor; set-up: method as in earlier work; conditions: cited from earlier work
[4] = system: human liver microsomal amidase; experiment: Incubations with heat-treated HLM for microsomal hydrolase/amidase activity, with and without BNPP; type: in vitro ADME; conditions: 10 µM MPZ, pH 7.4, 8.4 and 9.4, 60 min
Method: Prior to the reaction for amidase activity, the reaction mixture containing KPi buffer (pH 7.4, 8.4, or 9.4) and HLM was pre‐incubated at 50°C for 5 min to inactivate CYP and FMO activities in HLM. The mixture was placed on ice to cool down. An aliquot was taken out which was considered as t = 0 min incubation. Then 10 µM MPZ was added into the remaining mixture and incubated at 37°C on an orbital shaker for 60 min. A parallel set of incubations was conducted with 10 µM MPZ in the presence at 2 and 16 µM, of BNPP (a known inhibitor of amidase). All reactions were in triplicate. The total percentage of organic solvent in the incubation mixture was ≤0.1%. The reactions were terminated by the addition of chilled acetonitrile: methanol, 90:10, (v/v). The samples were vortex‐mixed and stored at ≤−70°C and were subjected analyzed by LC–MS/MS.

Structure (SMILES) | percent of MPZ disappeared [1] | metabolism by rhFMO5 (rhFMO5) | metabolism by rhFMO3 (rhFMO3) | metabolite formation in HKM [2] | metabolism in human intestine S9 [3] | fold less potent at the human D2 receptor compared to the parent (human D2 receptor) | pH dependence of MPZA formation in HLM [4]
CS(=O)(=O)c1ccc2c(c1)N(CCCN1CCC(C(N)=O)CC1)c1ccccc1S2 [MPZ, metopimazine] | approximately 30% | did not metabolize MPZ | did not metabolize MPZ | did not produce any metabolites | virtually no metabolism |  | 
CS(=O)(=O)c1ccc2c(c1)N(CCCN1CCC(C(=O)O)CC1)c1ccccc1S2 [MPZA, metopimazine acid] |  |  |  |  |  | about 200 fold | faster the higher the pH
